Data as given in patent US20180050029A1, “SELECTIVE CONNEXIN HEMICHANNELS BLOCKERS FOR THE TREATMENT OF EPILEPSY” (PONTIFICIA UNIVERSIDAD CATÓLICA DE CHILE, priority 2015, published 2018).
Values joined by “and” are separate entries in the source; they are usually repeats but may differ in a detail not shown here. Equal entries are not always repeated. “Also recorded” adds a separate entry of the source.

Key:
[1] = test system: hemichannels and channels formed by connexins and pannexins; experiment: Ethidium uptake in brain slices of PTZ-treated mice, slices treated with Cbx; type: cell-based; conditions: for PTZ-induced ethidium uptake: 20 min on slices, astrocytes, oligodendrocytes and neurons
Description: Adult male mice at 2 months were injected intraperitoneally with PTZ (70 mg/kg) or PBS as a control. After 30 min post injection of the treatment, the action of Cbx at two concentrations was evaluate, 10 μM to block pannexin hemichannels and 100 μM to block both connexin and pannexin-based channels. The mice were sacrificed to extract the brains and obtain coronal slices 400 μm thick. The slices, once stabilized, were treated with Cbx for 20 min and then incubated with the ethidium bromide dye (4 μM) for 10 minutes. Thereafter, the slices were fixed and the immunofluorescence staining process was continued as described above. The mean data of ethidium uptake was normalized to the control condition (dotted line) of each cell type. […] The results obtained were expressed as the mean±SEM. Samples were determined using the Student's t-test (*p<0.05).

C57B/6 mice = experiment: Toxicity or lethality of molecule D4, supervision protocol; type: in vivo; conditions: 0.2, 2, 20, 200, 2000 mg/kg i.p.
Description: To evaluate the toxicity or lethality of the molecule D4, Two-month adult mice were injected intraperitoneally in increasing doses (0.2; 2; 20; 200; 2000 mg/kg mouse weight) and were left under observation for 72 hours. After the observation time, the behavioral and physiological aspects of the animals were evaluated based on the Protocol of Supervision according to the Bioethics and Biosafety guidelines of the Faculty of Biological Sciences of the Pontificia Universidad Catolica de Chile that rules in the laboratory. The variables considered included physiological data (weight loss), appearance (posture) and spontaneous behavior (attitude to stimulation). […] In addition, mortality was zero at all concentrations evaluated. The evaluation of mortality of the molecule D4 as an anticonvulsant drug administered in mice prior to the induction of epilepsy with PTZ was zero (Table 3).
Measurements are performed by trained personnel, who know the basal or usual behavior of the animals under study.

[2] = test system: PTZ-induced seizures in C57BL/6 mice; experiment: PTZ-induced seizures and mortality, anticonvulsant pretreatment; conditions: for Animal Mortality: dead/total animals
[3] = test system: connexin hemichannels in brain cells; experiment: Ethidium uptake in brain slices of mice pretreated with D4 before PTZ; type: in vivo; conditions: D4 2 mg/kg i.p. six and one hour before PTZ (70 mg/kg), 30 min post PTZ; microglia, astrocytes and neurons
Description: Immunofluorescence and visualization in confocal microscopy identified cell types.
The mean data from ethidium uptake was normalized to the control condition (see FIG. 5, dotted line) of each cell type. […] The results obtained were expressed as the mean±SEM. Samples were determined using the Student's t-test (*p<0.05).

glial hemichannels = experiment: Application of PTZ to brain slices; type: cell-based; conditions: PTZ applied to brain slices
adult C57BL/6 mice = experiment: PTZ dose response, epileptogenic episodes and mortality in mice; type: in vivo; conditions: for Mortality: dead/total animals
Description: As epileptogenic agent, we used PTZ (Pentylenetetrazole), a GABAA receptor inhibitor widely used in the study and development of anticonvulsant drugs.
To determine the effective dose, a dose response curve was performed based on the available literature. […]

[4] = test system: connexin hemichannels in brain cells; experiment: Ethidium uptake in brain slices of PTZ-treated mice (time course); type: in vivo; conditions: PTZ 70 mg/kg i.p.
Description: Adult male mice of 2 months were injected via i.p. with PTZ (70 mg/kg) or phosphate buffered saline (PBS) as a control. Mice were sacrificed after 10, 20 and 30 min post-treatment to extract the brains and generate coronal slices of 400 μm thick using a vibratome. The slices were stabilized for 1 h prior to dye uptake, immersed in ACSF (artificial cerebrospinal fluid), bubbled with 95% O2 and 5% CO2 and at room temperature. Brain slices were incubated with the ethidium bromide dye (Etd, 4 μM) for 10 minutes. Subsequently, the slices were washed and fixed for 1 h with paraformaldehyde (4%). The brain slices were incubated for 40 min with blocking solution (PBS, 0.2% gelatine, 1% triton). Subsequently, the samples were incubated overnight at 4° C. with the primary antibody against molecular markers of the different cell types: anti-mast cell “Transmembrane tyrosine kinase” receptor CD117 (CD117); Integrin αM anti-microglia (CD11b); anti-astrocytes “glial fibrillary acidic protein” (GFAP); anti-oligodendrocytes “proteolipid protein” (PLP) and anti-neuronal neuron-market (NeuN). After washing with PBS (phosphate buffered saline), they were incubated with the Cy2-conjugated secondary antibody for 2 hours at room temperature and avoiding light.
Finally, the brain slices were washed and mounted on Flouromount G mounting medium and observed directly by the laser-scanning confocal microscope (Nikon Eclipse Ti). Consecutive images were taken with 40× target at 1 μm intervals sequentially with two lasers (Argon, 488 nm and Helium/Neon, 543 nm). In FIG. 1, representative images of mast cells (1.A, C), microglia (1.E, F), astrocytes (1.1, K), oligodendrocytes (1.M, O) and neurons (1.Q, S) and Etd-uptake of PTZ-induced control mice and mice (1.B, D, 1.F, H, 1.J, L, 1.N, P, 1.R, T).
The mean data of ethidium uptake was normalized to the control condition (dotted line) of each cell type. […] The results obtained were expressed as the mean±SEM. Samples were determined using the Student's t-test (*p<0.05).

[5] = PTZ (70 mg/kg) without molecule D4

CC1(C)[C@@H](OC(=O)CCC(=O)O)CC[C@]2(C)[C@H]3C(=O)C=C4[C@@H]5C[C@@](C)(C(=O)O)CC[C@]5(C)CC[C@@]4(C)[C@]3(C)CC[C@@H]12 [Carbenoxolone, carbenoxolone]
PTZ-induced ethidium uptake ([1]; Cbx 10 μM): block the uptake of ethidium | PTZ-induced ethidium uptake ([1]; Cbx 100 μM): block the uptake of ethidium | PTZ-induced hemichannel and channel activity ([1]; FIG. 3 legend, macroglia and neurons): blocks hemispheric activity formed by PTZ-induced connexins and channels

O=C(OC(C(=O)c1ccc(Cl)cc1)c1ccccc1)c1ccc2ccccc2n1 (centres unmarked) [Molecule D4, 2-(4-chlorophenyl)-2-oxo-1-phenylethyl quinoline-2-carboxylate]
Mortality (C57B/6 mice; 72 hours observation): zero | observable side effects (C57B/6 mice; 72 hours observation, 2000 mg/kg): no observed side effects; also recorded: no observable side effects | supervision protocol score (weight loss, posture, spontaneous behavior) (C57B/6 mice; 72 hours, score 0-3 is normal): zero | Animal Mortality ([2]; Molecule D4 (2 mg/kg) prior to PTZ (70 mg/kg)): zero | PTZ-induced hemichannel activity (ethidium uptake) [3]: blocks the activity of hemichannels formed by PTZ-induced connexin in brain cells; also recorded: not positive to Etd; also recorded: blocks PTZ-induced hemichannel activity and basal activation

C1CCc2nnnn2CC1 [PTZ, Pentylenetetrazole]
opening of glial hemichannels (glial hemichannels): induced the opening of glial hemichannels | % Mortality [2, 5]: 20% | Animal Mortality [2, 5]: 3/15 | % Mortality (adult C57BL/6 mice; PTZ 65 mg/kg i.p. single dose): 0% | Eliptogenic Episode (adult C57BL/6 mice; PTZ 65 mg/kg i.p. single dose): No | Mortality (adult C57BL/6 mice; PTZ 65 mg/kg i.p. single dose): 0/3 | % Mortality (adult C57BL/6 mice; PTZ 70 mg/kg i.p. single dose): 20% | Eliptogenic Episode (adult C57BL/6 mice; PTZ 70 mg/kg i.p. single dose): induces convulsions and Yes | Mortality (adult C57BL/6 mice; PTZ 70 mg/kg i.p. single dose): without being lethal and 3/15 | % Mortality (adult C57BL/6 mice; PTZ 75 mg/kg i.p. single dose): 50% | Eliptogenic Episode (adult C57BL/6 mice; PTZ 75 mg/kg i.p. single dose): Yes | Mortality (adult C57BL/6 mice; PTZ 75 mg/kg i.p. single dose): 2/4 | % Mortality (adult C57BL/6 mice; PTZ 80 mg/kg i.p. single dose): 100% | Eliptogenic Episode (adult C57BL/6 mice; PTZ 80 mg/kg i.p. single dose): Yes | Mortality (adult C57BL/6 mice; PTZ 80 mg/kg i.p. single dose): 3/3 | % Mortality (adult C57BL/6 mice; PTZ 90 mg/kg i.p. single dose): 100% | Eliptogenic Episode (adult C57BL/6 mice; PTZ 90 mg/kg i.p. single dose): Yes | Mortality (adult C57BL/6 mice; PTZ 90 mg/kg i.p. single dose): 3/3 | time to develop seizures post-administration (adult C57BL/6 mice; PTZ-treated mice): ≤ 10 min | behaviour in the hours after the seizures (adult C57BL/6 mice; PTZ-treated mice, period of several hours): very low motor activity and sporadic contractions | epileptogenic episodes (adult C57BL/6 mice; higher doses (>100 mg/kg)): induce epileptogenic episodes | mortality rate (adult C57BL/6 mice; higher doses (>100 mg/kg), at 5 min after administration): 100% | epileptogenic episodes (adult C57BL/6 mice; lower dose (<65 mg/kg)): does not induce evident epileptogenic episodes | hemichannel activity (ethidium uptake) in brain slices ([4]; versus control mice): induces activity of connexin hemichannels in brain cells; also recorded: positive for high activity of hemichannels; also recorded: positive for Etd fluorescence | hemichannel activity (ethidium uptake normalized to control) ([4]; astrocytes and oligodendrocytes, first (FIG. 2.A)): increases the activity of the hemichannels | hemichannel activity (ethidium uptake normalized to control) ([4]; mast cells, microglia and neurons, after 30 min (FIG. 2.B and C)): increases the activity of the hemichannels

O=C1NC(=O)C(c2ccccc2)(c2ccccc2)N1 [phenytoin, Phenytoin]
prevention of PTZ-induced seizures ([2]; phenytoin treatment, after 10 minutes of treatment): does not prevent PTZ-induced seizures
